The values below are quoted from earlier work in US20070025948A1, “Dilution-type sterilizer composition” (Dainippon Sumitomo Pharma Co. Ltd, priority 2003, published 2007).

Structures can show the parent of a compound that is named as a salt. Where two headings read alike, the source gives them in different places.

For data set [1] the following is noted: 20° C.
The conditions of data set [2]: hydrophilic-lipophilic balance, from new Surfactant Handbook.

On to `[H]/N=C(\N/C(=N/[H])NCCCCCCNC(=N)NC(=N)Nc1ccc(Cl)cc1)Nc1ccc(Cl)cc1` [Chlorhexidine], for which the solubility in water in data set [1] is given as 0.08 w/v %.

With `[H]/N=C(\N/C(=N/[H])NCCCCCCNC(=N)NC(=N)Nc1ccc(Cl)cc1)Nc1ccc(Cl)cc1` [chlorhexidine gluconate], the solubility in water entry in data set [1] is given as “not less than 50 w/v %”.

For the compound `CCCCCCCCCCCCOS(=O)(=O)[O-].[Na+]` [sodium lauryl sulfate], the HLB in data set [2] was about 40.

On to `[H]/N=C(\N/C(=N/[H])NCCCCCCNC(=N)NC(=N)Nc1ccc(Cl)cc1)Nc1ccc(Cl)cc1` [chlorhexidine hydrochloride], for which, in data set [1] (hydrochloride), the solubility in water is 0.06 w/v %.

`CCCCCCCCCCCCCCCCCC(=O)[O-].[Na+]` [sodium stearate]: the HLB in data set [2] is given as 18.
